Values quoted from earlier work in patent US20060182816A1, “Hypobromous acid system” (priority 2005, published 2006).
Where two headings read alike, the source gives them in different places.

Key:
[1] = not given; remark: listed apart in the source

OBr [Hypobromite ion]
% bromine as OBr− (pH 6.0): 0.0% | % bromine as OBr− (pH 6.5): 0.6% | % bromine as OBr− (pH 7.0): 2% | % bromine as OBr− (pH 7.5): 6% | % bromine as OBr− (pH 8.0): 17% | % bromine as OBr− (pH 8.5): 43%

OBr [Hypobromous acid]
% bromine as HOBr (pH 6.0): 100% | % bromine as HOBr (pH 6.5): 99.4% | % bromine as HOBr (pH 7.0): 98% | % bromine as HOBr (pH 7.5): 94% | % bromine as HOBr (pH 8.0): 83% | % bromine as HOBr (pH 8.5): 57%

OCl [HOCl, hypochlorous acid]
pKa [1]: about 7.53
